Results as given in US12473293B2, “Pharmacologically active heterocyclic-substituted pyrazolo[1,5-a]pyrimidine derivatives” (Richter Gedeon Nyrt., priority 2020, dated 2025).
Structures can show the parent of a compound that is named as a salt.

Target: T1, GABAB receptor (Rattus norvegicus, UniProt O88871+Q9Z0U4)
T1 construct: from tissue; host or cells: rat brain cortex membranes
Experiment: In vitro [35S]GTPγS binding assay in rat cortical membranes
Assay type: biochemical
Conditions: PAM EC50, [35S]GTPγS binding, read-out: In vitro PAM potency
Experimental: In Vitro [^35S]GTPγS Binding Assay in Rat Cortical Membranes
Cortices of freshly harvested rat brains were dissected on an ice-cold surface and homogenized by a glass Dounce homogeniser immediately in ice-cold buffer containing 50 mM Tris, 5 mM MgCl2 and 1 mM EDTA (pH=7.6). Tissue homogenates were centrifuged at 40000 g for 15 min at 4° C. Membrane pellets were resuspended in the same buffer and membranes were incubated for 10 min at 30° C. in a shaking water bath to eliminate endogenous GABA. Homogenates were centrifuged again under the same conditions. The final pellets were resuspended in ice-cold buffer (pH=7.6) containing 50 mM Tris, 100 mM NaCl, 7 mM MgCl2, 1 mM EDTA and 1 mM dithiotreithol (DTT) to yield a concentration of 20 mg tissue weight/ml and frozen at −70° C. until use. The assay was done in a buffer containing 50 mM Tris (pH=7.4), 100 mM NaCl, 7 mM MgCl2, 1 mM EDTA and 1 mM DTT. Each assay tube contained 150 μL GDP (in a final concentration of 50 μM), 100 μL ligand and 125 μL of the membrane suspension ([…]). The assay tubes were preincubated for 10 min at 30° C. to assure equilibrium. Nonspecific binding was determined in the presence of 10 μM GTPγS; basal binding was determined in the presence of buffer only. After addition of […] [^35S]GTPγS in a volume of 25 μL to the tubes, membranes were incubated for an additional 60 min at 30° C. The assay was terminated by rapid filtration through Packard UniFilter GF/B using a Packard harvester and washed four times with 1 ml ice-cold buffer. After drying the filters at 40° C. for 1 h, 40 μL Microscint (Packard) was added to the filters and radioactivity of the filters was determined by a TopCount NXT (PerkinElmer, Waltham, MA; Alper and Nelson, Eur. J. Pharmacol. 1998, 343, 303-312; Rinken et al, Biochem. Pharmacol. 1999, 57, 155-162). Data thus gathered were used to determine PAM EC50 values for each compound as primary in vitro activity end point.
In Table 1 compounds of this invention measured in the [^35S]GTPγS binding assay are listed.

T1 sequence (O88871 41-940): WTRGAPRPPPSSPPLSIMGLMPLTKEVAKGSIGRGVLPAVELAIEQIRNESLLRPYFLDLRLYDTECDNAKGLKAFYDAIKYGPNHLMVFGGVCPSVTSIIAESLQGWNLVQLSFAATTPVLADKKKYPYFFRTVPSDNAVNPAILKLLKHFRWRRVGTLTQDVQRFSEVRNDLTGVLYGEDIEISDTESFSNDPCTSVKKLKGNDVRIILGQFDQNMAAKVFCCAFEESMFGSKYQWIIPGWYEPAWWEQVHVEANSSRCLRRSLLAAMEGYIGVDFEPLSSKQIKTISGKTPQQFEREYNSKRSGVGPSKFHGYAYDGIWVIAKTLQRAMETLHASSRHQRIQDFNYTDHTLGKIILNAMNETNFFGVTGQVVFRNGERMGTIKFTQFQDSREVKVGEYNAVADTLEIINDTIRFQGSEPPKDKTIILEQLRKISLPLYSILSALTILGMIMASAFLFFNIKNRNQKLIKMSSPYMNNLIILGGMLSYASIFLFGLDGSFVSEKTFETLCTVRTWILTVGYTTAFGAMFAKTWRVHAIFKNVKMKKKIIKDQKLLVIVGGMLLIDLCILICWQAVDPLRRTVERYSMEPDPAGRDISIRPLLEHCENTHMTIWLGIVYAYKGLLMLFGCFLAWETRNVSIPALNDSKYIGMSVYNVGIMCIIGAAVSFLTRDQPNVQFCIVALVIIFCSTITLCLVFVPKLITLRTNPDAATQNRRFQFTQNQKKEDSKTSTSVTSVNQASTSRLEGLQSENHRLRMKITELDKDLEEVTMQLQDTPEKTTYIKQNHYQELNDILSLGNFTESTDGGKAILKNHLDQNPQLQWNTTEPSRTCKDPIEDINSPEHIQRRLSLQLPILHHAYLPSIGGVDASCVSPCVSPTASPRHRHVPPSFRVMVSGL
T1 sequence (Q9Z0U4 17-960 limits assumed): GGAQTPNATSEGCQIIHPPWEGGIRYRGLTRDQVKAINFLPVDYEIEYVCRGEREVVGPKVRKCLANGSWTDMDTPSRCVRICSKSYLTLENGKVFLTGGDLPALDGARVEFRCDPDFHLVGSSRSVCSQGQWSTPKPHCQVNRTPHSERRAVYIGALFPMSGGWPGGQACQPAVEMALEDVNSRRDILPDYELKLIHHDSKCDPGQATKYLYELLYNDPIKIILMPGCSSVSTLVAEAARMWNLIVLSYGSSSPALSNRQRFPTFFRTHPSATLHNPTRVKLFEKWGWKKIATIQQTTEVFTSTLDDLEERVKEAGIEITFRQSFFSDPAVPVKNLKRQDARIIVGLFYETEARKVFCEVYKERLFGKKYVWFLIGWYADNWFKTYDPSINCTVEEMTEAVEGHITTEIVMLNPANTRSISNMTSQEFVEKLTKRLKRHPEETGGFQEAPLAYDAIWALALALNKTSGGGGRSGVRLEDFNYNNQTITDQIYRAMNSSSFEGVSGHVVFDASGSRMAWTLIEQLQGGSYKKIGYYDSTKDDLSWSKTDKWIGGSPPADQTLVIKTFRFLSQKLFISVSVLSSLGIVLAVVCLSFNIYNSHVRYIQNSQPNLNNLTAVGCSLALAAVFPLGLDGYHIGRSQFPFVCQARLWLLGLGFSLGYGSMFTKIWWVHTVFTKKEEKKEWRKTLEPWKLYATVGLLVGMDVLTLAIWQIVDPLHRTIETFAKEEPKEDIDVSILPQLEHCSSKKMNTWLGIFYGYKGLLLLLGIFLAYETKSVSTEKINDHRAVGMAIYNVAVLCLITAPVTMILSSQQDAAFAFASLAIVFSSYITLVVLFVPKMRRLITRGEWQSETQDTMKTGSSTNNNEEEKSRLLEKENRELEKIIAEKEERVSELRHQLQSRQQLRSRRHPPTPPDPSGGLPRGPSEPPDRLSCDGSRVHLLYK

Molecule	EC50 [nM]
Cc1cc([C@]2(C)CCCN(S(N)(=O)=O)C2)n2nc([C@H]3CC[C@H](C(F)(F)F)CC3)cc2n1 [Example 71]	1000 to 10000
Cc1cc([C@H]2CN(C(=O)OC(C)C)CCO2)n2nc([C@H]3CC[C@H](C(F)(F)F)CC3)cc2n1 [Example 99]	100 to 1000
Cc1cc([C@H]2CN(C(=O)c3cscn3)CCO2)n2nc([C@H]3CC[C@H](C(F)(F)F)CC3)cc2n1 [Example 121]	100 to 1000
Cc1nc2cc([C@H]3CC[C@H](C(F)(F)F)CC3)nn2c([C@@H]2CN(C(=N)N)CC[C@@H]2C)c1C (racemic) [Example 57]	100 to 1000
Cc1nc2cc([C@H]3CC[C@H](C(F)(F)F)CC3)nn2c([C@@H]2CCCN(C(=O)[C@@H](N)CO)C2)c1C [Example 21, (2S)-2-amino-1-[(3R)-3-{5,6-dimethyl-2-[trans-4-(trifluoromethyl)cyclohexyl]pyrazolo[1,5-a]pyrimidin-7-yl}piperidin-1-yl]-3-hydroxypropan-1-one]	1000 to 10000
CC(=O)N1CCC[C@@](C)(c2cc(C)nc3cc([C@H]4CC[C@H](C(F)(F)F)CC4)nn23)C1 [Example 41]	< 100
CC(=O)N1CC[C@@H](C)[C@@H](c2cc(C)nc3c(F)c([C@H]4CC[C@H](C(F)(F)F)CC4)nn23)C1 (single isomer, unassigned) [Example 3]	1000 to 10000
Cc1cc([C@@H]2CN(C(=O)N(C)C)CC[C@@H]2C)n2nc([C@H]3CC[C@H](C(F)(F)F)CC3)c(F)c2n1 (racemic) [Example 46]	100 to 1000
Cc1nc2cc([C@H]3CC[C@H](C(F)(F)F)CC3)nn2c([C@]2(C)CCCN(CC(F)(F)F)C2)c1C [Example 48]	100 to 1000
CCc1c(C)nc2cc([C@H]3CC[C@H](C(F)(F)F)CC3)nn2c1[C@@H]1CCCN(C(=O)OC)C1 [Example 51]	100 to 1000
Cc1cc([C@H]2CN(C=O)[C@@H](C)CO2)n2nc([C@H]3CC[C@H](C(F)(F)F)CC3)cc2n1 [Example 103]	100 to 1000
Cc1cc([C@@H]2CN(S(C)(=O)=O)CC[C@@H]2C)n2nc([C@H]3CC[C@H](C(F)(F)F)CC3)cc2n1 (racemic) [Example 85]	100 to 1000
2-[(3R)-3-{5,6-dimethyl-2-[trans-4-(trifluoromethyl)cyclohexyl]pyrazolo[1,5-a]pyrimidin-7-yl}-3-methylpiperidin-1-yl]acetic acid hydrochloride [Example 19]	100 to 1000
Cc1cc([C@]2(C)CCCN(C(=N)N)C2)n2nc([C@H]3CC[C@H](C(F)(F)F)CC3)cc2n1 [Example 64]	1000 to 10000
Cc1cc([C@@H]2CCCN(C=O)C2)n2nc([C@H]3CC[C@H](C(F)(F)F)CC3)cc2n1 [Example 22, (3R)-3-{5-methyl-2-[trans-4-(trifluoromethyl)cyclohexyl]pyrazolo[1,5-a]pyrimidin-7-yl}piperidine-1-carbaldehyde]	100 to 1000
Cc1cc(C2CN(C=O)CCO2)n2nc([C@H]3CC[C@H](C(F)(F)F)CC3)cc2n1 (some centres unmarked) [Example 83]	100 to 1000
Cc1cc(C2CN(C=O)CCS2(=O)=O)n2nc([C@H]3CC[C@H](C(F)(F)F)CC3)cc2n1 (some centres unmarked) [Example 87]	≥ 10000
COC(=O)N1CCC[C@H](c2cc(C)nc3cc([C@H]4CC[C@H](C(F)(F)F)CC4)nn23)[C@H]1C (racemic) [Example 92]	< 100
COC(=O)N1CC[C@H](C)[C@@H](c2cc(C)nc3cc([C@H]4CC[C@H](C(F)(F)F)CC4)nn23)C1 (single isomer, unassigned) [Example 4]	100 to 1000
COC(=O)N1CCS(=O)(=O)[C@@H](c2cc(C)nc3cc([C@H]4CC[C@H](C(F)(F)F)CC4)nn23)C1 [Example 90]	≥ 10000
Cc1cc(C2CN(C)CCC2(C)C)n2nc([C@H]3CC[C@H](C(F)(F)F)CC3)cc2n1 (some centres unmarked) [Example 61]	100 to 1000
CC(=O)N1CCC(C)C(c2cc(C)nc3c(F)c(C4CCC(C(F)(F)F)CC4)nn23)C1 (single isomer, unassigned) [Example 2]	100 to 1000
CCOC(=O)N1CCO[C@H](c2cc(C)nc3cc([C@H]4CC[C@H](C(F)(F)F)CC4)nn23)C1 [Example 95]	1000 to 10000
Cc1nc2cc([C@H]3CC[C@H](C(F)(F)F)CC3)nn2c([C@@H]2CN(C)CC[C@@H]2C)c1C (racemic) [Example 56]	1000 to 10000
CCc1c(C)nc2cc([C@H]3CC[C@H](C(F)(F)F)CC3)nn2c1[C@]1(C)CCCN(C(C)=O)C1 [Example 34]	< 100

Molecule	EC50 [nM]
Cc1nc2cc([C@H]3CC[C@H](C(F)(F)F)CC3)nn2c([C@@H]2CCCN(C(=O)CN)C2)c1C [Example 52]	1000 to 10000
Cc1cc(C2CCCN(C)C2=O)n2nc([C@H]3CC[C@H](C(F)(F)F)CC3)cc2n1 (some centres unmarked) [Example 105]	1000 to 10000
Cc1cc([C@@H]2CCCN(C(=N)N)C2)n2nc([C@H]3CC[C@H](C(F)(F)F)CC3)cc2n1 [Example 23, (3R)-3-{5-methyl-2-[trans-4-(trifluoromethyl)cyclohexyl]pyrazolo[1,5-a]pyrimidin-7-yl}piperidine-1-carboximidamide hydrochloride]	100 to 1000
COC(=O)N1CCC[C@H](c2cc(C)nc3cc([C@H]4CC[C@H](C(F)(F)F)CC4)nn23)[C@@H]1C [Example 97]	100 to 1000
Cc1cc([C@H]2CN(C(=O)c3cncs3)CCO2)n2nc([C@H]3CC[C@H](C(F)(F)F)CC3)cc2n1 [Example 118]	100 to 1000
Cc1cc([C@H]2CN(C(=O)c3cnco3)CCO2)n2nc([C@H]3CC[C@H](C(F)(F)F)CC3)cc2n1 [Example 114]	100 to 1000
Cc1cc([C@@H]2CCCN(C(C)C)C2)n2nc([C@H]3CC[C@H](C(F)(F)F)CC3)cc2n1 [Example 24, (3R)-3-{5-methyl-2-[trans-4-(trifluoromethyl)cyclohexyl]pyrazolo[1,5-a]pyrimidin-7-yl}-1-(propan-2-yl)piperidine]	1000 to 10000
Cc1cc([C@@H]2CN(C=O)CCO2)n2nc([C@H]3CC[C@H](C(F)(F)F)CC3)cc2n1 [Example 94]	1000 to 10000
Cc1cc([C@H]2CN(S(C)(=O)=O)CCO2)n2nc([C@H]3CC[C@H](C(F)(F)F)CC3)cc2n1 [Example 119]	100 to 1000
CCC1CCN(C(=O)OC)CC1c1cc(C)nc2cc([C@H]3CC[C@H](C(F)(F)F)CC3)nn12 (some centres unmarked) [Example 67]	100 to 1000
COC(=O)N1CCO[C@H](c2cc(C)nc3cc([C@H]4CC[C@H](C(F)(F)F)CC4)nn23)C1 [Example 93]	1000 to 10000
COC(=O)N1CC[C@@H](C)[C@H](c2cc(C)nc3c(F)c([C@H]4CC[C@H](C(F)(F)F)CC4)nn23)C1 [Example 128]	1000 to 10000
CC(=O)N1CCC[C@](C)(c2c(C)c(C)nc3cc([C@H]4CC[C@H](C(F)(F)F)CC4)nn23)C1 [Example 37]	100 to 1000
COC(=O)N1CCSC(c2cc(C)nc3cc([C@H]4CC[C@H](C(F)(F)F)CC4)nn23)C1 (stereo partly drawn) [Example 126, methyl 2-{5-methyl-2-[trans-4-(trifluoromethyl)cyclohexyl]pyrazolo[1,5-a]pyrimidin-7-yl}thiomorpholine-4-carboxylate]	100 to 1000
CC(=O)N1CCO[C@@H](c2c(C)c(C)nc3cc([C@H]4CC[C@H](C(F)(F)F)CC4)nn23)C1 [Example 88]	100 to 1000
COC(=O)N1C[C@H](c2cc(C)nc3cc([C@H]4CC[C@H](C(F)(F)F)CC4)nn23)OC[C@H]1C [Example 106]	100 to 1000
COC(=O)N1CCOC(C)(c2cc(C)nc3cc([C@H]4CC[C@H](C(F)(F)F)CC4)nn23)C1 (some centres unmarked) [Example 73]	1000 to 10000
CC(=O)N1CCCC(CF)(c2cc(C)nc3cc([C@H]4CC[C@H](C(F)(F)F)CC4)nn23)C1 (some centres unmarked) [Example 62]	100 to 1000
COCCOC(=O)N1CCO[C@@H](c2cc(C)nc3cc([C@H]4CC[C@H](C(F)(F)F)CC4)nn23)C1 [Example 100]	100 to 1000
Cc1nc2cc([C@H]3CC[C@H](C(F)(F)F)CC3)nn2c([C@]2(C)CCCN(CC(N)=O)C2)c1C [Example 49]	1000 to 10000
Cc1nc2cc([C@H]3CC[C@H](C(F)(F)F)CC3)nn2c(C2CN(C=O)CCO2)c1C (some centres unmarked) [Example 80]	100 to 1000
CC(=O)N1CCCC(c2c(C(C)C)c(C)nc3cc([C@H]4CC[C@H](C(F)(F)F)CC4)nn23)C1 (some centres unmarked) [Example 40]	< 100
COC(=O)N1C[C@@H](c2cc(C)nc3cc([C@H]4CC[C@H](C(F)(F)F)CC4)nn23)OC[C@H]1C [Example 110]	1000 to 10000
CCc1c(C)nc2cc([C@H]3CC[C@H](C(F)(F)F)CC3)nn2c1[C@]1(C)CCCN(S(C)(=O)=O)C1 [Example 44]	< 100
COC(=O)N1CC[C@@H](C)[C@@H](c2cc(C)nc3cc([C@H]4CC[C@H](C(F)(F)F)CC4)nn23)C1 (single isomer, unassigned) [Example 7]	100 to 1000
